Values after ≈ are worked out from the molar mass of the structure shown. Read-outs that look alike come from different tables or passages of the source. Positions of bridges follow the written chain, without caps; N, C: chain ends. Non-standard residues stand in square brackets, D forms with d. Residues, ends and D or L forms follow the SMILES beside them. *: point of attachment. Ileψ(thiazoline)Cys = CC[C@H](C)[C@H](N)C1=N[C@H](C(=O)*)CS1; dOrn = NCCC[C@@H](N)C(=O)O
Experiments:
N. gerenzanensis = conditions: for MIC, non-induced: Nonomuraea gerenzanensis non-induced
Experimental: (§1) MICs were measured on solid media, since the standard broth dilution method used in unicellular bacteria to determine MICs by turbidity is compromised in mycelial actinomycetes by the formation of multicellular aggregates and by the coexistence of cells in different physiological states (e.g., vegetative mycelium, aerial mycelium, and spores).
(§2) Cryovials of WCBs were thawed at room temperature and used to inoculate a VSP medium for Nonomuraea spp. and Actinoplanes spp. or YEME for Streptomyces spp. in the presence or the absence of GPAs. The strains were grown to exponential phase (approximately 72 h) at 28 °C with shaking. The mycelium was harvested by centrifugation, suspended in 0.9% (w/v) NaCl, and fragmented by sonication with a Vibracell Albra sonicator 400 W [26]. […] The plates were dried and then incubated at 28 °C. MIC values were determined as the lowest antibiotic concentrations that inhibited visible growth after 10 days of incubation.

S. coelicolor ∆vanRS = test: MIC on solid media, S. coelicolor ∆vanRS; format: cell-based, Streptomyces coelicolor; conditions: MS agar plates, 10^7 CFU sonicated hyphae, 28 °C, 10 days, average of three independent experiments
Experimental: as §1, §2

N. gerenzanensis pST30 = test: MIC on solid media, N. gerenzanensis pST30; format: cell-based, Nonomuraea gerenzanensis; conditions: N. gerenzanensis pST30 (vanRSHAX cluster from A. teichomyceticus); V0.1 agar plates, 28 °C, 10 days; average of three independent experiments
Experimental: as §1, §2

[1] = tested on: VanX activity in N. gerenzanensis pST30; format: cell-based, Nonomuraea gerenzanensis; conditions: for Growth time within which VanX activity responds to the inducer: N. gerenzanensis pST30, subinhibitory concentrations (vancomycin 10, teicoplanin 1.75, A40926 10 µg/mL), teicoplanin to less extent; for Effect on VanX activity (cytoplasmic fraction): N. gerenzanensis pST30 grown with 10 µg/mL vancomycin, 1.75 µg/mL teicoplanin, 10 µg/mL A40926
Experimental: (§3) The D,D-dipeptidase activity of VanX (Figure 1) and the D,D-carboxypeptidase activity of VanY (Figure 2) were measured by determining the amount of D-Ala released from the hydrolysis of the D-Ala-D-Ala dipeptide and of the Nε-acetyl-L-Lys-D-Ala-D-Ala tripeptide, respectively. D-Ala release was measured by using a D-amino acid oxidase coupled to a peroxidase [25, 31].
(§4) VanX-specific activity is defined as the number of nanomoles of D-Ala released by the hydrolysis of D-Ala-D-Ala dipeptide at 37 °C per minute per milligram of protein contained in cytoplasmic fractions.
(§5) S. coelicolor A3(2), its ΔvanRS mutant, A. teichomyceticus ATCC 31121, N. gerenzanensis ATCC 39727, and N. gerenzanensis pST30 were grown as described above. […] Antibiotics were added to the cultures at the moment of inoculation using concentrations calculated as the half-point of MICs (see below and Table 1), except for vancomycin (10 µg/mL) in S. coelicolor A3(2), as reported by Kwun et al. [10].
Cells were harvested by centrifugation at 3600× g for 20 min at 4 °C, and then they were suspended in 2 mL of 0.9% (w/v) NaCl per gram of cells (wet weight). All of the following manipulations were conducted at 0 to 4 °C. The mycelium was fragmented by sonication with a Sonics Vibracell VCX 130. Sonication was carried out for 5 min on ice, with cycles of 30 s with an amplitude of 90% (90% of 60 Hz), with breaks of 10 s. The samples were then centrifuged at 39,000× g for 15 min, and the supernatants (cytoplasmic fractions) were collected. An alkaline extraction of the pellets (cell debris and membrane fractions) was carried out by adapting a protocol developed previously for extracting membrane-bound proteins [25, 36]. The sedimented pellets were resuspended in ice-cold distilled water containing proteinase inhibitors (0.19 mg/mL phenylmethanesulfonyl fluoride and 0.7 µg/mL pepstatin, both purchased from Sigma-Aldrich), and then, immediately before centrifugation (28,000× g for 15 min at 4 °C), the pH was adjusted to 12 by adding an appropriate volume of 2.5 N NaOH. Immediately after centrifugation, the supernatants were neutralized to pH 7 by adding 0.5 M sodium acetate (pH 5.4). Enzymatic activities in the supernatant (cytoplasmic fractions) and in the resuspended insoluble fractions (membranes) were assayed as reported previously [36] by measuring the release of D-Ala from commercially available dipeptide (D-Ala-D-Ala, 10 mM; Sigma-Aldrich) and tripeptide (Nε-acetyl-L-Lys-D-Ala-D-Ala, 10 mM; Sigma-Aldrich).

[2] = tested on: VanY activity in N. gerenzanensis pST30; format: cell-based, Nonomuraea gerenzanensis; conditions: for Effect on VanY activity (membrane extracts): N. gerenzanensis pST30 grown with subinhibitory concentrations of GPAs added at inoculum
Experimental: To determine the correlation between the antimicrobial activity of the GPAs and their ability to induce the van resistance system in actinomycetes, we followed the enzyme activities corresponding to either VanX or VanY peptidases in cells growing in liquid culture in the presence or absence of subinhibitory concentrations of GPAs (Figure 1 and Figure 2). The D,D-dipeptidase activity of VanX (Figure 1) and the D,D-carboxypeptidase activity of VanY (Figure 2) were measured by determining the amount of D-Ala released from the hydrolysis of the D-Ala-D-Ala dipeptide and of the Nε-acetyl-L-Lys-D-Ala-D-Ala tripeptide, respectively. D-Ala release was measured by using a D-amino acid oxidase coupled to a peroxidase [25, 31].
Figure 2 VanY activity in N. gerenzanensis and N. gerenzanensis pST30 grown in the absence (dotted line) or in the presence (continuous line) of subinhibitory concentrations of GPAs added at the moment of inoculum (see material and methods). VanY-specific activity is defined as the number of nanomoles of D-Ala released by the hydrolysis of Nε-acetyl-L-Lys-D-Ala-D-Ala tripeptide at 37 °C per minute per milligram of protein contained in membrane extracts. […] The values represent the averages from three independent experiments, with a standard deviation of <5%.
as §5
Cells were harvested by centrifugation at 3600× g for 20 min at 4 °C, and then they were suspended in 2 mL of 0.9% (w/v) NaCl per gram of cells (wet weight). All of the following manipulations were conducted at 0 to 4 °C. The mycelium was fragmented by sonication with a Sonics Vibracell VCX 130. […]

A. teichomyceticus = conditions: for MIC, teicoplanin-induced: Actinoplanes teichomyceticus + 10 µg/ml teicoplanin; for MIC, non-induced: Actinoplanes teichomyceticus non-induced
Experimental: as §1, §2

[3] = tested on: VanX activity in S. coelicolor; conditions: vancomycin 10 µg/mL
Experimental: as §3, §4, §5
Cells were harvested by centrifugation at 3600× g for 20 min at 4 °C, and then they were suspended in 2 mL of 0.9% (w/v) NaCl per gram of cells (wet weight). All of the following manipulations were conducted at 0 to 4 °C. The mycelium was fragmented by sonication with a Sonics Vibracell VCX 130. Sonication was carried out for 5 min on ice, with cycles of 30 s with an amplitude of 90% (90% of 60 Hz), with breaks of 10 s. […]

[4] = N. gerenzanensis, V0.1 agar plates, 10^7 CFU sonicated hyphae, 28 °C, 10 days, average of three independent experiments
[5] = Nonomuraea gerenzanensis + 2 µg/ml A40926, after 48h of growth, average of three independent experiments
[6] = Nonomuraea gerenzanensis + 2 µg/ml A40926, after 72h of growth, average of three independent experiments
[7] = after 48h of growth, average of three independent experiments
[8] = after 72h of growth, average of three independent experiments
[9] = S. coelicolor, MS agar plates, 10^7 CFU sonicated hyphae, 28 °C, 10 days, average of three independent experiments
[10] = A. teichomyceticus, V0.1 agar plates, 10^7 CFU sonicated hyphae, 28 °C, 10 days, average of three independent experiments

Compound	Minimal inhibitory concentration (MIC) (N. gerenzanensis; [4]) [µg/mL]	MIC, A40926-induced (N. gerenzanensis; [5])	MIC, A40926-induced (N. gerenzanensis; [6])	MIC, non-induced (N. gerenzanensis; [7])	MIC, non-induced (N. gerenzanensis; [8])	Minimal inhibitory concentration (MIC) (S. coelicolor; [9]) [µg/mL]	Minimal inhibitory concentration (MIC) (S. coelicolor ∆vanRS) [µg/mL]	Minimal inhibitory concentration (MIC) (N. gerenzanensis pST30) [µg/mL]	Growth time within which VanX activity responds to the inducer [1] [h]	Effect on VanX activity (cytoplasmic fraction) [1]	Effect on VanY activity (membrane extracts) [2]	Minimal inhibitory concentration (MIC) (A. teichomyceticus; [10]) [µg/mL]	MIC, teicoplanin-induced (A. teichomyceticus; [8])	MIC, non-induced (A. teichomyceticus; [7])	MIC, non-induced (A. teichomyceticus; [8])	Minimal inhibitory concentration (MIC) (N. gerenzanensis; 72 h) [µg/mL]	Minimal inhibitory concentration (MIC) (S. coelicolor; 72 h) [µg/mL]	Minimal inhibitory concentration (MIC) (A. teichomyceticus; 72 h) [µg/mL]	Change of level of VanX enzyme activity within the first 24 h from the induction [3]	Growth time at which induced VanY activity reaches its maximum value ([2]; N. gerenzanensis pST30 induced by vancomycin) [h]
Teicoplanin	0.9 ± 0.01	1.2±0.03 g/ml	1.2±0.02 g/ml	0.9±0.01 g/ml	0.9±0.015 g/ml	1.5 ± 0.025	1.5 ± 0.02	2.75 ± 0.15	≤ 48	induced	comparable to the basal level	20 ± 1.5	20±0.85 g/ml	20±1 g/ml	20±0.9 g/ml					
CC[C@H](C)[C@H](N)C1=N[C@H](C(=O)N[C@@H](CC(C)C)C(=O)N[C@H](CCC(=O)O)C(=O)N[C@H](C(=O)N[C@H]2CCCCNC(=O)[C@H](CC(N)=O)NC(=O)[C@@H](CC(=O)O)NC(=O)[C@H](Cc3cnc[nH]3)NC(=O)[C@@H](Cc3ccccc3)NC(=O)[C@H]([C@@H](C)CC)NC(=O)[C@@H](CCCN)NC2=O)[C@@H](C)CC)CS1 [Bacitracin] ({Ileψ(thiazoline)Cys}-L[dE]IK[dOrn]I[dF]H[dD]N; lactam 4-C (inferred); N-terminus assumed)							0.9 ± 0.035 (≈ 0.633 µM)	20 ± 1.2 (≈ 14.1 µM)								20 ± 1.3 (≈ 14.1 µM)	0.9 ± 0.05 (≈ 0.633 µM)	20 ± 1.15 (≈ 14.1 µM)		
Ramoplanin	20 ± 1.2					0.9 ± 0.045	0.9 ± 0.025	20 ± 1.1				20 ± 1								
CN[C@H](CC(C)C)C(=O)N[C@H]1C(=O)N[C@@H](CC(N)=O)C(=O)N[C@H]2C(=O)N[C@H]3C(=O)N[C@H](C(=O)N[C@H](C(=O)O)c4cc(O)cc(O)c4-c4cc3ccc4O)[C@H](O)c3ccc(c(Cl)c3)Oc3cc2cc(c3O[C@@H]2O[C@H](CO)[C@@H](O)[C@H](O)[C@H]2O[C@H]2C[C@](C)(N)[C@H](O)[C@H](C)O2)Oc2ccc(cc2Cl)[C@H]1O [Vancomycin]	20 ± 1.6 (≈ 13.8 µM)	32 ± 0.9 µg/mL	32 ± 0.8 µg/mL	20 ± 0.8 µg/mL (≈ 13.8 µM)	20 ± 0.5 µg/mL (≈ 13.8 µM)	>100	1.25 ± 0.03 (≈ 0.863 µM)	20 ± 1.05 (≈ 13.8 µM)	≤ 48	induced	significantly induced	90 ± 4.2 (≈ 62.1 µM)	90 ± 2.1 µg/mL	90 ± 2.5 µg/mL (≈ 62.1 µM)	90 ± 1.6 µg/mL (≈ 62.1 µM)				doubled	96
